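Cells were grown in 96-well plates and exposed to each compound for 48 hours at five concentrations; endpoints were interpolated linearly between bracketing concentrations, or set to the highest concentration if not reached. Abbreviation: GI50, concentration required for 50% inhibition of growth. TGI denotes the concentration required for complete inhibition of growth.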
Tests used:
Experiment in all cases: inhibition of tumour cell growth, NCI panel, 48 h
HL-60(TB) leukemia = system: HL-60(TB) leukemia
MOLT-4 leukemia = system: MOLT-4 leukemia
NCI-H522 lung = system: NCI-H522 lung
U251 CNS = system: U251 CNS
SK-MEL-28 melanoma = system: SK-MEL-28 melanoma
NCI-H460 lung = system: NCI-H460 lung
CCRF-CEM leukemia = system: CCRF-CEM leukemia
786-0 renal = system: 786-0 renal
TK-10 renal = system: TK-10 renal
HOP-92 NSCLC = system: HOP-92 NSCLC
SK-MEL-2 melanoma = system: SK-MEL-2 melanoma
SF-539 CNS = system: SF-539 CNS
KM12 colon = system: KM12 colon
EKVX NSCLC = system: EKVX NSCLC
PC-3 prostate = system: PC-3 prostate
SN12C renal = system: SN12C renal
HT29 colon = system: HT29 colon
MCF7 breast = system: MCF7 breast
HCC-2998 colon = system: HCC-2998 colon
OVCAR-4 ovarian = system: OVCAR-4 ovarian
OVCAR-3 ovarian = system: OVCAR-3 ovarian
LOX IMVI melanoma = system: LOX IMVI melanoma
BT-549 breast = system: BT-549 breast
HOP-62 NSCLC = system: HOP-62 NSCLC
RXF 393 renal = system: RXF 393 renal
COLO 205 colon = system: COLO 205 colon
SK-OV-3 ovarian = system: SK-OV-3 ovarian
SK-MEL-5 melanoma = system: SK-MEL-5 melanoma
SW-620 colon = system: SW-620 colon
NCI-H23 lung = system: NCI-H23 lung
NCI-H226 lung = system: NCI-H226 lung
HS 578T breast = system: HS 578T breast
K-562 leukemia = system: K-562 leukemia
HCT-15 colon = system: HCT-15 colon
SNB-19 CNS = system: SNB-19 CNS
CAKI-1 renal = system: CAKI-1 renal
UO-31 renal = system: UO-31 renal
SF-268 CNS = system: SF-268 CNS
IGROV1 ovarian = system: IGROV1 ovarian
OVCAR-8 ovarian = system: OVCAR-8 ovarian
MDA-MB-231 breast = system: MDA-MB-231 breast
SF-295 CNS = system: SF-295 CNS
HCT-116 colon = system: HCT-116 colon
ACHN renal = system: ACHN renal
MDA-MB-435 = system: MDA-MB-435
M14 melanoma = system: M14 melanoma
A549 NSCLC = system: A549 NSCLC
T-47D breast = system: T-47D breast
OVCAR-5 ovarian = system: OVCAR-5 ovarian
UACC-62 melanoma = system: UACC-62 melanoma
UACC-257 melanoma = system: UACC-257 melanoma
RPMI-8226 leukemia = system: RPMI-8226 leukemia
DU-145 prostate = system: DU-145 prostate
SNB-75 CNS = system: SNB-75 CNS
MALME-3M melanoma = system: MALME-3M melanoma
NCI/ADR-RES ovarian = system: NCI/ADR-RES ovarian

In the case of CCOC(=O)CCC(NC(=O)c1ccc(Sc2nc3cc(N)cc(N)c3nc2-c2ccccc2)cc1)C(=O)OCC (stereo not drawn), the GI50 (HL-60(TB) leukemia) is reported as 298 nM, the TGI (HL-60(TB) leukemia) is reported as over 100 µM and the GI50 (MOLT-4 leukemia) is reported as 726 nM. The TGI (MOLT-4 leukemia) was over 100 µM, the GI50 (NCI-H522 lung) was 2760 nM and the GI50 (U251 CNS) was 1020 nM. It also gave a TGI (U251 CNS) of over 40.6 µM, a GI50 (SK-MEL-28 melanoma) of 884 nM and a TGI (SK-MEL-28 melanoma) of 32 µM. For the same compound, the GI50 (NCI-H460 lung) was 3.05 µM, the TGI (NCI-H460 lung) was over 100 µM and the GI50 (CCRF-CEM leukemia) was 1310 nM. For the same compound, the TGI (CCRF-CEM leukemia) was over 100 µM, the GI50 (786-0 renal) was 4.72 µM and the TGI (786-0 renal) was over 100 µM. For the same compound, the GI50 (TK-10 renal) was 22.4 µM, the TGI (TK-10 renal) was over 100 µM and the GI50 (HOP-92 NSCLC) was 2740 nM. It also gave a TGI (HOP-92 NSCLC) of 46.2 µM, a GI50 (SK-MEL-2 melanoma) of 4.22 µM and a TGI (SK-MEL-2 melanoma) of 72.4 µM. The GI50 (SF-539 CNS) was 92.6 nM, the TGI (SF-539 CNS) was 14.7 µM and the GI50 (KM12 colon) was 2190 nM. It also gave a TGI (KM12 colon) of over 86.6 µM, a GI50 (EKVX NSCLC) of 13.7 µM and a TGI (EKVX NSCLC) of over 77.6 µM. It also gave a GI50 (PC-3 prostate) of 2610 nM, a TGI (PC-3 prostate) of over 100 µM and a GI50 (SN12C renal) of 17.7 µM. The TGI (SN12C renal) was 44.5 µM, the GI50 (HT29 colon) was 755 nM and the TGI (HT29 colon) was over 100 µM. It also gave a GI50 (MCF7 breast) of 626 nM, a TGI (MCF7 breast) of over 100 µM and a GI50 (HCC-2998 colon) of 4.73 µM. It also gave a TGI (HCC-2998 colon) of 17 µM, a GI50 (OVCAR-4 ovarian) of 2280 nM and a TGI (OVCAR-4 ovarian) of over 73.2 µM. The GI50 (OVCAR-3 ovarian) was 730 nM, the TGI (OVCAR-3 ovarian) was 2880 nM and the GI50 (LOX IMVI melanoma) was 480 nM. It also gave a TGI (LOX IMVI melanoma) of over 29.3 µM, a GI50 (BT-549 breast) of 2300 nM and a TGI (BT-549 breast) of 36.9 µM. For the same compound, the GI50 (HOP-62 NSCLC) was 2230 nM, the TGI (HOP-62 NSCLC) was 47.7 µM and the GI50 (RXF 393 renal) was 3 µM. The TGI (RXF 393 renal) was 19.4 µM, the GI50 (COLO 205 colon) was 2710 nM and the GI50 (SK-OV-3 ovarian) was 2830 nM. The TGI (SK-OV-3 ovarian) was 53 µM, the GI50 (SK-MEL-5 melanoma) was 1710 nM and the TGI (SK-MEL-5 melanoma) was 5.55 µM. The GI50 (SW-620 colon) was 2380 nM, the TGI (SW-620 colon) was over 100 µM and the GI50 (NCI-H23 lung) was 2290 nM. It also gave a TGI (NCI-H23 lung) of over 58 µM, a GI50 (NCI-H226 lung) of 970 nM and a TGI (NCI-H226 lung) of over 65.9 µM. It also gave a GI50 (HS 578T breast) of 10.2 µM, a TGI (HS 578T breast) of over 87.1 µM and a TGI (K-562 leukemia) of 24.5 µM. The GI50 (HCT-15 colon) was 1800 nM, the TGI (HCT-15 colon) was over 65.6 µM and the GI50 (SNB-19 CNS) was 4.77 µM. The TGI (SNB-19 CNS) was over 100 µM, the GI50 (CAKI-1 renal) was 2030 nM and the TGI (CAKI-1 renal) was over 41.6 µM. The GI50 (UO-31 renal) was 4.78 µM, the TGI (UO-31 renal) was over 100 µM and the GI50 (SF-268 CNS) was 2180 nM. The TGI (SF-268 CNS) was over 66.6 µM, the GI50 (IGROV1 ovarian) was 6.91 µM and the TGI (IGROV1 ovarian) was over 100 µM. It also gave a GI50 (OVCAR-8 ovarian) of 2780 nM, a TGI (OVCAR-8 ovarian) of over 63 µM and a GI50 (MDA-MB-231 breast) of 7.96 µM. For the same compound, the TGI (MDA-MB-231 breast) was 35.1 µM, the GI50 (SF-295 CNS) was 939 nM and the TGI (SF-295 CNS) was over 36.8 µM. The GI50 (HCT-116 colon) was 1300 nM, the TGI (HCT-116 colon) was over 100 µM and the GI50 (ACHN renal) was 1300 nM. It also gave a TGI (ACHN renal) of 33.9 µM, a GI50 (MDA-MB-435) of 11.1 µM and a TGI (MDA-MB-435) of 33.5 µM. For the same compound, the GI50 (M14 melanoma) was 3.34 µM, the GI50 (A549 NSCLC) was 2900 nM and the TGI (A549 NSCLC) was over 100 µM. It also gave a GI50 (T-47D breast) of over 53.9 µM, a TGI (T-47D breast) of over 100 µM and a GI50 (OVCAR-5 ovarian) of 60.5 µM. The TGI (OVCAR-5 ovarian) was over 100 µM, the GI50 (UACC-62 melanoma) was 1030 nM and the TGI (UACC-62 melanoma) was over 62.4 µM. For the same compound, the GI50 (UACC-257 melanoma) was over 41.4 µM, the TGI (UACC-257 melanoma) was over 63.6 µM and the GI50 (RPMI-8226 leukemia) was 1620 nM. The TGI (RPMI-8226 leukemia) was over 89.8 µM, the GI50 (DU-145 prostate) was 38.2 µM and the TGI (DU-145 prostate) was over 100 µM. The GI50 (SNB-75 CNS) was 32.2 µM, the TGI (SNB-75 CNS) was 63.8 µM and the GI50 (MALME-3M melanoma) was 19.6 µM. For the same compound, the TGI (MALME-3M melanoma) was 37.2 µM, the GI50 (NCI/ADR-RES ovarian) was 21.6 µM and the TGI (NCI/ADR-RES ovarian) was over 100 µM.

From PubChem BioAssay (NCI)
